According to patent publication US8822646B2, “Cancer therapies and pharmaceutical compositions used therein” (ProNAi Therapeutics, Inc., priority 2005, dated 2014):

How the values were obtained:
[1] = tested on: WSU-DLCL2 human diffuse large cell lymphoma; test: Inhibition of tumor growth in WSU-DLCL2 non-Hodgkin's-lymphoma model with PNT-100 and vincristine (Example 7); type: in vivo, mice
Description: A non-Hodgkin's-lymphoma model (NHL) was used. The WSU-DLCL2 (Wayne State University diffuse large cell lymphoma) model is a very robust model of chemoresistant aggressive human diffuse large cell lymphoma. It was obtained from Dr. Ramzi Mohammad and Dr. Al-Katib and colleagues at the Karmanos Cancer Institute at Wayne State University. (See Al-Katib, A M, et al., Clin. Cancer Res. 4, 1305-1314 (1998); Mohammad, R, et al., Clin. Cancer Res. 8, 1277-1283 (2002); Mohammad, R M, et al., Mol. Cancer. Ther., 4, 13-21 (2005); Mohammad, R M, et al., Clin. Cancer Res. 6, 4950-4956, (2000).) The study was designed to administer five daily doses of 5 mg/kg PNT-100 (SEQ ID NO: 1251), and in certain cohorts, combination therapy with vincristine.

[2] = tested on: Daudi xenografts; test: Efficacy of liposomal PNT-100 and rituximab in Daudi xenografts (Example 11); type: in vivo, mice; settings: doses and schedules of Table 5, FIGS. 7-9
Experimental: Daudi cells are a model of Burkett's lymphoma. Xenografts with Daudi cells were generated in mice as described in the previous examples. Liposomal PNT-100 was formulated as in example 9 and has similar properties and a concentration of 2.4 mg PNT-100 per ml. The mice were divided into 10 groups and treated as in Table 5.
Tumor volume was caliper measured. Studies were concluded when control animal xenografts reached 2000 mm^3. […] FIG. 8 is a Kaplan-Meyer plot, showing the percent of mice whose tumors have not yet reached 2000 mm^3 each day.

[3] = tested on: WSU-DLCL2 xenografts; test: Efficacy of liposomal PNT-100 and rituximab in WSU-DLCL2 xenografts (Example 10); type: in vivo, C.B-17 SCID mice; settings: rituximab 20 mg/kg days 2 and 5; liposomal PNT-100 daily for five days; i.v.
Experimental: Xenografts with WSU-DLCL2 cells were generated in C.B-17 SCID mice between 4-6 weeks old as described in the previous examples. […] Human pharmaceutical grade rituximab (Biogen Idec-Genentech) was provided by Karmanos Cancer Institute. The mice were treated as in Table 4. [table] Animals were checked three times weekly for tumor growth by caliper measurements. An approximate tumor volume was calculated using the formula ½(a×b^2), where b is the smaller of two perpendicular diameters. Animals were sacrificed when individual animal tumor burden reached 2000 mm^3 or when the study was concluded 81 days post tumor trocar.

Substance	growth of tumors in mice ([1]; 5 mg/kg PNT-100, alone or with vincristine)	weight loss in the animals ([1]; after one dose, 5 mg/kg planned daily doses)	effect on tumor volume / time to 2000 mm^3 [2]	complete regression of the tumor (shrinkage below measurable size for three consecutive time points), number of tumors [3]	complete regression through the 81 day endpoint, number of tumors [3]
PNT-100: PNT-100 oligonucleotide not methylated, bcl-2 oligonucleotide, SEQ ID NO:1251 (DNA CACGCACGCGCATCCCCGCCCGTG; sugars by position and backbone not given here; liposomal formulation)	decreases the growth tumors	noticeable weight loss	little effect		
Rituximab: human pharmaceutical grade rituximab (Biogen Idec-Genentech), antibody directed against CD20			little effect	seven out of eight	four out of eight
